For series [1], the target named is somatostatin receptor subtype 2 (SSTR2) (Homo sapiens, UniProt P30874). As to conditions: reported in background art; cited from earlier work.
Series [2] concerns the target somatostatin receptor subtype 3 (SSTR3) (Homo sapiens, UniProt P32745). As to conditions: reported in background art; cited from earlier work.
Series [3] deals with somatostatin receptor subtype 1 (SSTR1) (Homo sapiens, UniProt P30872). As to conditions: reported in background art; cited from earlier work.
somatostatin receptor subtype 1 (SSTR1), sequence (P30872 whole entry, species assumed): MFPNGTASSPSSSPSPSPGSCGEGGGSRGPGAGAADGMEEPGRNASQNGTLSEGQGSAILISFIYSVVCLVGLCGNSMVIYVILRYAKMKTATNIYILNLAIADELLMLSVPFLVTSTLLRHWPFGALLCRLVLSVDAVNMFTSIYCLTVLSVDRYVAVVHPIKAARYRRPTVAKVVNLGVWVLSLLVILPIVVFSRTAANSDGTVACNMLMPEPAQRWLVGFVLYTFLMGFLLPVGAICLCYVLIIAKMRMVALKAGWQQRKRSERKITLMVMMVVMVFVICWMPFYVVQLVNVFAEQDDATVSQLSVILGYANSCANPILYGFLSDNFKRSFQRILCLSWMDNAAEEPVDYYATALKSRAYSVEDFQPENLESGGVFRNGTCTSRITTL
Series [4] concerns the target somatostatin receptor subtype 4 (SSTR4) (Homo sapiens, UniProt P31391). The note with it: reported in background art; cited from earlier work.
For the next series, the system named is gastric acid secretion. Briefly: Evaluation of suppression of gastric acid secretion using rats (pyloric ligation). Type of series: in vivo, rat. As to conditions: continuous intravenous administration, 1 μg/kg/h.
Another series concerns the target T1, human SSTR2 (Homo sapiens, UniProt P30874).
T1 construct: Myc; expressed in transfected cells
Briefly: Evaluation of SSTR2 agonistic activity using cells expressing human SSTR2 (suppression of forskolin-stimulated cAMP production, SSTR2-CHO-K1). In kind it is cell-based. As to conditions: suppression of cAMP production by forskolin stimulation, 1000 nmol/L octreotide = 100%.

The next series has as its target T2, hERG K+ channel (Homo sapiens, UniProt Q12809).
T2 construct: expressed in transfected cells; host or cells: CHO-K1
Briefly: Evaluation of hERG K+ channel inhibitory activity using cells expressing human ERG (automated patch-clamp, CHO-K1). Type of series: cell-based. As to conditions: CHO-K1 cells with human ERG gene, tested at 1, 3 and 10 μmol/L, 5-minute incubation. The method, then: Evaluation of hERG K^+ Channel Inhibitory Activity Using Cells Expressing Human ERG
CHO-K1 cells having the human ERG gene (ether-a-go-go related gene) introduced therein were subcultured in an F-12 medium [F-12 Nutrient Mixture (HAM)] containing 10% inactivated foetal bovine serum, 100 IU/mL penicillin-100 μg/mL streptomycin and 200 μg/mL geneticin.
Patch-clamp was performed in a full-automated manner using CHO-K1 cells having the human ERG gene introduced therein and having a perforated patch formed therein with amphotericin B. For the experiment, a 384-well PatchPlate™ was used and the cell suspension and compounds were added thereto. The IKr current was measured with command voltages of holding potential of −80 mV, depolarization potential of +40 mV (2 seconds) and repolarization potential of −50 mV (2 seconds). The stimulation frequency was twice (single pulse stimulations) before and after the treatment with a drug (the concentrations of a compound for evaluation were 1, 3 and 10 μmol/L, a 5-minute incubation), and the Ikr maximum current was measured. The inhibition (%) on the CHO-K1 cells having the human ERG gene introduced therein was determined by correcting the variation in the maximum tail current before and after addition of the test substance by the variation thereof in the group treated with a medium (inhibition (%)=(1-variation in current before and after addition of a test substance/variation in current before and after addition of a medium)×100). The 50% inhibitory concentration (IC50 value) was calculated from a line connecting two points on both sides of the inhibition of 50%.

The subject of series [5] is Chinese hamster lung-derived CHL/IU cells. Description: Evaluation of phospholipidosis induction ability using cultured cell line (NBD-PE incorporation). In kind it is cell-based. As to conditions: 24 hours, positive = 25% or more of amiodarone maximum reaction at cell viability 50% or more; for phospholipidosis induction ability (judgement): 6.25-100 μmol/L. The method, then:
Chinese hamster lung-derived CHL/IU cells were suspended in an MEM-E culture solution containing non-essential amino acids, sodium pyruvate and 10% foetal bovine serum and seeded in a 96-well plate. The cells cultured overnight in an incubator (5% carbon dioxide, 95% air, 37° C.) were further cultured for 24 hours after replacing the culture solution with a culture solution containing 6.25, 12.5, 25, 50 or 100 μmol/L of a test substance and NBD-PE (fluorescence label N-(7-nitrobenz-2-oxa-1,3-diazol-4-yl)-1,2-dihexadecanoyl-sn-glycero-3-phosphoethanolamine triethylammonium salt) obtained from Molecular Probes. The phospholipidosis induction ability was evaluated by measuring the concentration of NBD-PE incorporated into the cells. Specifically, the cells were washed twice with PBS and then measured for the fluorescence of NBD-PE (excitation wavelength: 485 nm, fluorescence wavelength: 535 nm) incorporated in the cells on a SpectraMax plate reader available from Molecular Devices, LLC. for evaluation. After measurement of the fluorescence of NBD-PE, the cell viability was evaluated with Premix WST-1 Cell Proliferation Assay System available from TaKaRa Bio Inc. The phospholipidosis induction ability was judged to be positive when, at a dose that provided a cell viability of 50% or more, the reaction (the concentration of NBD-PE incorporated after administration of a test substance) was 25% or more of the maximum reaction of a positive control amiodarone (the concentration of NBD-PE incorporated into the cells after administration of amiodarone was regarded as 100%).

For the next series, the system named is GH secretion. Description: Evaluation of suppression of growth hormone (GH) secretion using rats (GHRH-induced). Type of series: in vivo. The note with it: Rattus norvegicus, 5 min, oral, dosage of 1 mg/kg, GHRH given 8 hours after dosing, blood GH 5 minutes after GHRH. The method, then: A medium (distilled water (Otsuka distilled water, Otsuka Pharmaceutical Factory, Inc.)) or a test compound dissolved in the medium was orally administered to rats (7-week old male Crl:CD(SD) IGS rats (Charles River Laboratories Japan, Inc.)) and after 7 hours and 57 minutes, the animals were administered with 50 mg/kg of pentobarbital sodium (Somnopentyl, Kyoritsu Seiyaku Corporation) via the tail vein for anaesthesia. Three minutes after administration of pentobarbital sodium, the rats were administered with 0.01 mg/kg of growth hormone-releasing hormone (GHRH, Bachem) via the tail vein to induce GH secretion. In order to measure the blood GH concentration, 0.2 mL of blood was collected through the jugular vein at 5 minutes after administration of GHRH. The collected blood was centrifuged at 4° C., 13,000×g for 5 minutes to obtain plasma. The blood GH concentration was measured by using Rat/Mouse Growth Hormone ELISA (Millipore) following the instruction of the kit. The percentage (%) of suppression of GH secretion was determined by using the obtained blood GH concentration and the equation {[suppression (%) of GH secretion]=([blood GH concentration of the group administered with the medium]−[blood GH concentration of the group administered with a test compound])/[blood GH concentration of the group administered with the medium]×100}. In the equation, the group administered with the medium represents the group of animals administered with the medium and the group administered with a test compound represents the group of animals administered with a test compound dissolved in the medium.

pEC50, pIC50: −log10 of the molar value.

T1 sequence (P30874 whole entry): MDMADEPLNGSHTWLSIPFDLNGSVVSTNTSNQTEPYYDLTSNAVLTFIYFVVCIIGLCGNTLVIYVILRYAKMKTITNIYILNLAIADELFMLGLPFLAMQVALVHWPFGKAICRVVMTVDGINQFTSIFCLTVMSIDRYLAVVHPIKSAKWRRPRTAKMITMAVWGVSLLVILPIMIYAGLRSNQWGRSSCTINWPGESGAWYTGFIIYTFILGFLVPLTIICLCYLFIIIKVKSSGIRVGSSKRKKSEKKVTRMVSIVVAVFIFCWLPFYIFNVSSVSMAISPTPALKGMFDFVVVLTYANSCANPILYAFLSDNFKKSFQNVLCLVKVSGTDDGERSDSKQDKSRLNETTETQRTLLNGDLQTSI
T2 sequence (Q12809 whole entry): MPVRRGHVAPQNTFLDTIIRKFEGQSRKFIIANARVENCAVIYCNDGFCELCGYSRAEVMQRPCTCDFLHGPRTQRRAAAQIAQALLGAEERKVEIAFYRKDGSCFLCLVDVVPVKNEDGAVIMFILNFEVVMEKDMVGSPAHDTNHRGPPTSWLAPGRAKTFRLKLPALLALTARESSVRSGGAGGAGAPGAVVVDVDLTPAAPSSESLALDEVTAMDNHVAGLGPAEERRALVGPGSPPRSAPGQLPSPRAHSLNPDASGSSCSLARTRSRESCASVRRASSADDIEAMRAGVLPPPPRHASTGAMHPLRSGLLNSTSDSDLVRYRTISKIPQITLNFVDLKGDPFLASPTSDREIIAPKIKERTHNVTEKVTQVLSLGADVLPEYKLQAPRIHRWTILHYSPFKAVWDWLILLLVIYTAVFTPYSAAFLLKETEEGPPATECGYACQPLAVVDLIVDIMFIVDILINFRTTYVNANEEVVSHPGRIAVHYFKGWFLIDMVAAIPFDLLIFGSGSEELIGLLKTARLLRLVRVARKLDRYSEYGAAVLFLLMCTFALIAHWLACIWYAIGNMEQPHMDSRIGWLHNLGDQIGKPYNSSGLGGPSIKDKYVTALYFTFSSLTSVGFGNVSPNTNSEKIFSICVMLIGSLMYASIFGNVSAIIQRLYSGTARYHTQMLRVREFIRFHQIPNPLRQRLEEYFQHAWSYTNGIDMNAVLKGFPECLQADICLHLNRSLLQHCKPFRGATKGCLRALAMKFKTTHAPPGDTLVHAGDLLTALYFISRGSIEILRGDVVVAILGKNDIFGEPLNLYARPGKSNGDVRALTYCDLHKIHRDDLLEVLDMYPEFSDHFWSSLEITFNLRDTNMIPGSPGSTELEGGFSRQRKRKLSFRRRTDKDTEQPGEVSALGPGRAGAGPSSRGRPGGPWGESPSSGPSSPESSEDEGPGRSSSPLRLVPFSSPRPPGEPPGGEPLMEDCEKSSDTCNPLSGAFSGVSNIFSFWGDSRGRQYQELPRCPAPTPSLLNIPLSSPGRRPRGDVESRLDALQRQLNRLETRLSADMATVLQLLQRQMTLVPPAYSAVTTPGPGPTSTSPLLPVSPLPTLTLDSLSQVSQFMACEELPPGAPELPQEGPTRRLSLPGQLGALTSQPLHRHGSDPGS
somatostatin receptor subtype 2 (SSTR2), sequence (P30874 whole entry, species assumed): as the sequence (P30874 whole entry) above
somatostatin receptor subtype 4 (SSTR4), sequence (P31391 whole entry, species assumed): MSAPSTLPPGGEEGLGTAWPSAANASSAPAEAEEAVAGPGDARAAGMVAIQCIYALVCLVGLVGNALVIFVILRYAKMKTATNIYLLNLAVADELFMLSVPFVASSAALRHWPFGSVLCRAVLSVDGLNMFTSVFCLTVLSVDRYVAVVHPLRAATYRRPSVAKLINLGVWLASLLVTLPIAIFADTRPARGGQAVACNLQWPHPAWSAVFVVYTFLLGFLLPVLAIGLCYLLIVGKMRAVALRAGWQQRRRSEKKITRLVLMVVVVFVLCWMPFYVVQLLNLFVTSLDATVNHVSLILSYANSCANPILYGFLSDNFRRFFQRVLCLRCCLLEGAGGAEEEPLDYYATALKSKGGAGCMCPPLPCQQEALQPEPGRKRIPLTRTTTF
somatostatin receptor subtype 3 (SSTR3), sequence (P32745 whole entry, species assumed): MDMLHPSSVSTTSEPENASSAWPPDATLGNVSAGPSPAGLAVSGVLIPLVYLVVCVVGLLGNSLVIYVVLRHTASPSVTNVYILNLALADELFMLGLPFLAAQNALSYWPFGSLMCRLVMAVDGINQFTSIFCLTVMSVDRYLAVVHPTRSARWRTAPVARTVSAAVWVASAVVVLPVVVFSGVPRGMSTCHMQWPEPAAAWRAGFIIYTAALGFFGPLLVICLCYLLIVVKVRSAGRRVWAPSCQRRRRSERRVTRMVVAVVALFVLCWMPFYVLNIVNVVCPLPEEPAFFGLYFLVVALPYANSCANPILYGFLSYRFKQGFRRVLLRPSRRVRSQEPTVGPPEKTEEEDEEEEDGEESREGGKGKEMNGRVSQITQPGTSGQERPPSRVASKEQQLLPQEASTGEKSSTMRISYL

`CC(C)[C@@H]1NC(=O)[C@H](CCCCN)NC(=O)[C@@H](Cc2c[nH]c3ccccc23)NC(=O)[C@H](Cc2ccc(O)cc2)NC(=O)[C@@H](NC(=O)[C@H](N)Cc2ccc3ccccc3c2)CSSC[C@@H](C(=O)N[C@H](C(N)=O)[C@@H](C)O)NC1=O` [lanreotide acetate]: the “binding affinity to SSTR2” value in series [1] is “high affinity”. For the same compound, in [2], the “binding affinity to SSTR3” value is “moderate affinity”. In addition, the “binding to SSTR1” value in series [3] is reported as “do not bind”. Further, the “binding to SSTR4” value in series [4] is reported as “do not bind”.
As for `C[C@@H](O)[C@@H]1NC(=O)[C@H](CCCCN)NC(=O)[C@@H](Cc2c[nH]c3ccccc23)NC(=O)[C@H](Cc2ccccc2)NC(=O)[C@@H](NC(=O)[C@H](N)Cc2ccccc2)CSSC[C@@H](C(=O)N[C@H](CO)[C@@H](C)O)NC1=O` [octreotide], the “percentage of suppression of gastric acid secretion” value in the series with gastric acid secretion is given as 39%.
The compound `COC(=O)c1cc(F)cc2nc(-c3cncc(-c4cc(F)ccc4F)c3N3CC[C@@H](N)[C@@H](O)C3)[nH]c12` [Example 4(16), Methyl 2-{4-[(3S,4R)-4-amino-3-hydroxy-1-piperidinyl]-5-(2,5-difluorophenyl)-3-pyridinyl}-5-fluoro-1H-benzimidazole-7-carboxylate] had a negative logarithm of the EC50 (pEC50) at human SSTR2 of 11.30. Also, the negative-log IC50 (pIC50) against hERG K+ channel was 5.41. The “concentration at which judged to be positive in phospholipidosis induction ability” value in series [5] is 25 µM. Moreover, in the series with GH secretion, the inhibition in vivo at 1 mg/kg was 67%.
On to `Cc1ncc(-c2cc(F)cc(Cl)c2)c(N2CC[C@@H](NC3COC3)[C@@H](O)C2)c1-c1nc2cc(F)c(F)cc2[nH]1` [Example 3(5), (3S,4R)-1-[5-(3-chloro-5-fluorophenyl)-3-(5,6-difluoro-1H-benzimidazol-2-yl)-2-methyl-4-pyridinyl]-4-(3-oxetanylamino)-3-piperidinol], for which the negative-log EC50 (pEC50) at human SSTR2 was 10.64. The compound further had a pIC50 against hERG K+ channel of 5.02. In addition, the “phospholipidosis induction ability (judgement)” value in [5] was “negative”. In the series on GH secretion, this compound showed an inhibition in vivo at 1 mg/kg of 83%.
Regarding `CCN[C@@H]1CCN(c2c(-c3nc4cc(F)c(F)cc4[nH]3)cncc2-c2cc(F)ccc2F)C[C@@H]1O` [Example 5(4), (3S,4R)-1-[3-(5,6-difluoro-1H-benzimidazol-2-yl)-5-(2,5-difluorophenyl)-4-pyridinyl]-4-(ethylamino)-3-piperidinol], on human SSTR2, the pEC50 is 10.51. The compound also had a negative-log IC50 (pIC50) against hERG K+ channel of 5.08. Besides, the “phospholipidosis induction ability (judgement)” value in [5] is “negative”. This compound also had an inhibition in vivo at 1 mg/kg in the series on GH secretion of 90%.
For `Cc1ncc(-c2cc(F)cc(F)c2)c(N2CC[C@@H](NCCC(F)(F)F)[C@@H](O)C2)c1-c1nc2cc(F)c(F)cc2[nH]1` [Example 3(12), (3S,4R)-1-[3-(5,6-difluoro-1H-benzimidazol-2-yl)-5-(3,5-difluorophenyl)-2-methyl-4-pyridinyl]-4-[(3,3,3-trifluoropropyl)amino]-3-piperidinol], the pEC50 at human SSTR2 was 9.00. This compound had a pIC50 at hERG K+ channel of 5.29. Further, in [5], the “phospholipidosis induction ability (judgement)” value was “negative”. 1 mg/kg produced 85% inhibition in vivo with GH secretion.
The compound `COC(=O)c1cc(F)cc2nc(-c3c(C)ncc(-c4cc(F)cc(Cl)c4)c3N3CC[C@@H](N)[C@@H](O)C3)[nH]c12` [Example 2(3), Methyl 2-{4-[(3S,4R)-4-amino-3-hydroxy-1-piperidinyl]-5-(3-chloro-5-fluorophenyl)-2-methyl-3-pyridinyl}-5-fluoro-1H-benzimidazole-7-carboxylate] gave a negative-log EC50 (pEC50) on human SSTR2 of 10.72. In addition, on hERG K+ channel, the negative logarithm of the IC50 (pIC50) is 5.28. Moreover, the “concentration at which judged to be positive in phospholipidosis induction ability” value in series [5] worked out at 12.5 µM. Further, at 1 mg/kg the inhibition in vivo in the series with GH secretion was 76%.

(Values after patent US20200000816A1, “COMPOUND HAVING SOMATOSTATIN RECEPTOR AGONISTIC ACTIVITY AND PHARMACEUTICAL USE THEREOF” (ONO PHARMACEUTICAL CO., LTD., priority 2017, published 2020).)
